# Bridges are numbered along the chain shown (N, C = ends). Where no end group is shown, it is not given here.
# Experiments:
# [1] = system: U937 human myelomonocytic cells; assay: ATP bioluminescence (ATP release) assay, U937; format: cell-based; conditions: read over 30 min
# Procedure: ATP bioluminescence assay (Roche Diagnostics, NSW Australia) was used to quantitate the release of ATP by permeabilised tumour cells. The Luciferase reagent was dissolved as per manufacturer's instructions and incubated for 5 min at 4° C. Briefly, cells were re-suspended at a concentration of 1×10^6 cells/mL in 1×PBS/0.1% BSA and added (40 μL/well) to the Luciferase reagent (50 μL/well) to a blank microtitre plate (Nunc™) containing 10 μL of protein samples. Simultaneously, using a multichannel pipette, the mixture was added (90 μL/well) and samples were immediately read on a microtitre plate reader at 562 nm for 30 min with readings taken at 30 s intervals. The data were analysed by SoftMaxPro 4.0 software (Molecular Devices Company).
# (§1) To determine whether NaD1 kills tumour cells in a similar manner to fungus, the ability of NaD1 to permeabilise tumour cells was assessed using two different approaches. The first used a bioluminescence assay to measure the release of intracellular ATP.
# (§2) The first used a bioluminescence assay to measure the release of intracellular ATP. 4×10^4 U937 (human myelomonocytic tumour cell line) were treated with increasing concentrations of PhD1A or rTPP3 (0-20-μM) and ATP release measured at intervals of 30 seconds for a total of 30 min by determining absorbance at 562 nm. The second approach used flow cytometry to determine the uptake of the fluorescent dye propidium iodide (PI) (2 μg/mL) by U937 (4×10^5/mL) following the treatment of cells with increasing concentrations of PhD1A (0 to 50 μM) or rTPP3 (0 to 40 μM) for 30 min.
# (§3) The first used a bioluminescence assay to measure the release of intracellular ATP. 4×10^4U937 were treated with 10 μM of each defensin and ATP release measured at intervals of 30 seconds for a total of 30 min by determining absorbance at 562 nm. The second approach used flow cytometry to determine the uptake of the fluorescent dye propidium iodide (PI) (2 μg/mL) by U937 (4×10^5/mL) following the treatment of cells with […] of each defensin for 30 min.
# [2] = system: human U937 myelomonocytic cells; assay: PI uptake flow cytometry cell permeabilisation assay, U937; format: cell-based; conditions: for PI+ U937 cells (mean ± SEM): 10 μM, absence of serum, Example 9, cell only control 27.03±0.52
# Procedure: (§4) Unless otherwise stated, cells were re-suspended at a cell concentration of 4×10^5 cells/mL in complete culture RPMI-1640 medium supplemented with 10% FBS, 100 U/mL penicillin and 100 μg/mL streptomycin, and added to either a V-bottom 96-well plate or microfuge tubes. Cells were kept at 37° C., unless otherwise stated, during protein addition (5 μL) at various concentrations or the set concentration of 10 μM. Typically, cells were mixed with the protein of interest and incubated at 37° C. for 30 min. In certain experiments, cells were also incubated at either 4° C. or 37° C. for 2-60 min prior to flow cytometry analysis. Cells were added to an equal volume of complete culture medium containing 2 μg/mL propidium iodide (PI, Annexin V-FITC Apoptosis Detection Kit, Invitrogen) and analysed immediately by flow cytometry using a FACSCanto cell sorter (Becton Dickson, Fanklin Lakes, N.J.) and Cell Quest Pro Software (Becton Dickson). Typically, 5000-10000 events per sample were collected and the resultant data were analysed using FlowJo software (Tree Star, Ashland, Oreg.). Cells were gated appropriately based on forward scatter (FSC) and side scatter (SSC), with the viable cells determined by their ability to exclude PI. For analysis purposes, all data was standardised relative to control (normal cell % ranged from approx. 0-7%).
# as §1, §2
# (§5) The percentage of PI^+ cells was then determined by flow cytometry.
# as §3
# [3] = Lipid-coated membrane strip binding assay (Echelon lipid strips); conditions: 0.12 μM, overnight, 4° C.
# Procedure: Membrane Lipid Strips™, PIP Strips™ and Sphingo Strips™ (Echelon Biosciences, Salt Lake City, Utah) were incubated with PBS/3% BSA for 1-2 h at RT to block non-specific binding. The membrane strips were then incubated with defensins (0.12 μM) diluted in PBS/1% BSA overnight at 4° C., prior to thorough washing for 60 min at RT with PBS/0.1% Tween-20. […] After each antibody incubation, the membrane strips were washed extensively for 60 min at RT with PBS/0.1% Tween-20. Chemiluminescence was detected using the enhanced chemiluminescence (ECL) western blotting reagent (GE Healthcare BioSciences, NSW Australia) and exposed to Hyperfilm (GE Healthcare BioSciences, NSW, Australia) and developed using an Xomat (All-Pro-Imaging).
# Densitometry analysis was performed on images obtained from lipid strips using ImageJ (National Institute of Health, Bethesda, Md.). Briefly, circles of equivalent size were traced around areas of interest. A background circle of equal size was also placed in the area on the membrane where there is no lipid and set as the background. The areas of interest were quantified as the average pixel intensity subtracted from the background.
# These strips are spotted with 100 pmole of each lipid in a biologically active form.
# Further investigation of the interaction of Solanaceae class I and class II defensins with cellular lipids was carried out by solid-state lipid binding assays using Echelon™ PIP Strips. […] Defensin binding was quantitated by densitometry on the developed lipid strips.
# [4] = system: Fusarium oxysporum f. sp. vasinfectum; conditions: read-out: IC50, growth of Fusarium oxysporum f. sp. vasinfectum
# Procedure: Permeabilization of fungal membranes has also been reported for some plant defensins (Lay and Anderson, 2005). […] These five fungal species are all members of the ascomycete phylum and are distributed among three classes in the subphylum pezizomycotiria. These fungi are agronomically important fungal pathogens.
# SP Sepharose elution fractions containing rNaD1 were loaded onto an analytical C8 RP-HPLC column and eluted using a 40 min linear gradient (0-100% buffer B). Proteins were detected by absorbance at 215 nm. […] Graph represents data from three separate experiments performed in quadruplicate. Error bars represent standard error of the mean.
# human red blood cells = assay: Red blood cell (RBC) lysis; conditions: for haemolytic activity: concentrations up to 100 μM
# Procedure: Following ficoll-paque separation, RBCs were collected and washed with 1×PBS and pelleted at 1000×g for 10 min. RBCs were diluted 1 in 10 for treatment with increasing concentrations (0-100 μM) of defensins and incubated over-night under a humidified atmosphere of 5% CO2/95% air. […] The degree of red blood cell lysis was measured as absorbance at 412 nm.
# [5] = system: human coronary artery smooth muscle cells (CASMC) and umbilical vein endothelial cells (HUVEC); conditions: read-out: IC50, viability of normal primary cells (MTT), 48 h
# Procedure: Tumour cells were seeded in a 96-well microtitre plate (50 μL/well) at an optimum density determined in the cell optimisation assay as above. Background control wells (n=8) containing the same volume of complete culture medium were included in the assay. The microtitre plate was incubated overnight at 37° C., prior to the addition of proteins at various concentrations and the plate was incubated for a further 48 h. The cell viability 3-(4,5-dimethyl-2-thiazolyl)-2,5-diphenyl-2H-tetrazolium bromide (MTT, Sigma-Aldrich) assay was carried out as follows: the MTT solution (1 mg/mL) was added to each well (100 μL) and the plate incubated for 2-3 h at 37° C. under a humidified atmosphere containing 5% CO2/95% air. Subsequently, for adherent cell lines, the media was removed and replaced with dimethyl sulfoxide (100 μL, DMSO, Sigma-Aldrich), and placed on a shaker for 5 min to dissolve the tetrazolium salts. In the case of suspension cells, prior to the addition of DMSO the cells are spun at 1500 rpm for 5 min. Absorbance of each well was measured at 570 nm and the IC50 values (the protein concentration to inhibit 50% of cell growth) were determined using the Origin Software Program. […]
# [6] = Acute oral toxicity (OECD Test Guideline 423); format: in vivo, C57BL/6 mice
# Text: This study was based on OECD Test Guideline 423 (OECD [Organisation for Economic Co-operation and Development]. 2001. Guideline 423: Acute Oral Toxicity—Acute Toxic Class Method. Paris: OECD).
# Healthy female C57BL/6 mice derived from the same litter were obtained from either the Central Animal House at La Trobe University (Bundoora Campus) or from Monash Animal Services. The animals were identified by ear punch and kept three per cage during the study. The animals will be housed and maintained in groups of three in cages as per standard animal house conditions at La Trobe University.
# On the day of dosing, the test mice were weighed and fasted for 4 h prior to dose administration. Just prior to dosing, the mice were reweighed. […] The protein solution was administered by oral gavage using a round-tipped canula needle. Feed was replaced 1 h after dosing. The mice received standard rodent diet and water ad libitum.
# The mice were observed hourly for 4 h after dosing on day 1 and at least twice daily thereafter until scheduled killing on day 14. Signs of gross toxicity, adverse pharmacologic effects and behavioural changes were assessed and recorded daily as was the food and water consumption. The mice were reweighed at days 7 or 8 and 14. On the last day of the study (day 14), the mice were killed by inhalation of carbon dioxide and necropsied. All the mice received a gross pathological examination. The weights of the following organs were recorded: brain, heart, liver, lungs, kidneys, gastrointestinal tract, spleen and thymus. Subsequently, the samples were fixed in 4% (v/v) paraformaldehyde until paraffin embedding, sectioning and histopathological examination by the Australian Phenomics Network, University of Melbourne node. The gastrointestinal tract was divided into the following sections: stomach, duodenum, jejunum, ileum, cecum and colon.
# Phoma betae = conditions: 1 μg/mL; cited from earlier work
# Sclerotinia sclerotiorum = conditions: 100 μg/mL; cited from earlier work
# U937 cells = assay: PI uptake permeabilisation assay in the presence of serum; format: cell-based, human; conditions: for PI+ U937 cells: 10 μM defensin; for activity on tumour cells in the presence of serum: up to 40% serum
# Procedure: as §4, §5
# To assess the ability of PhD1A or rTPP3 to permeabilise tumour cells in the presence of serum, the PI-uptake flow cytometry assay was utilised as described in Example 2 with the following modifications: 4×10^5/mL U937 cells were incubated with […] PhD1A or rTPP3 in the presence of increasing concentrations of foetal calf serum (FCS) (0 to 40%) for 60 min followed by addition of 2 μg/mL PI. The percentage of PI^+ cells was then determined by flow cytometry.
# [7] = Example 11, 30 min at 37° C., concentration printed 'at 100' (10 μM in the same block)
# [8] = oral gavage, 20, 50 or 300 mg NaD1/kg body weight, 14 days
substance,measurement,setting,value
NsD1: Nicotiana suaveolens class II defensin; mature domain SEQ ID NO: 22 (KDCKRESNTFPGICITKPPCRKACIREKFTDGHCSKILRRCLCTKPC; listed as Nicotiana suaveolens),release of ATP from U937 cells,[1],release of ATP in a time-dependent and concentration-dependent manner
same,PI+ U937 cells,[2]; [7],~60%
same,phospholipid binding preference (PIP strips),[3],general preference of binding to phosphoinositides
"RECKTESNTFPGICITKPPCRKACISEKFTDGHCSKILRRCLCTKPC (disulfide 3-47, 14-34, 20-41, 24-43) [NaD1]",IC50,[4],~1 µM
same,RBC lysis (relative to water = 100% lysis),"human red blood cells; 100 μM, 16 h, 37° C.",~50%
same,IC50,[5],7.5 to 12 µM
same,adverse effects on mice,[6]; administered orally at up to 300 mg NaD1/kg body weight,no adverse effects
same,histopathology of organs,[6]; highest dose of 300 mg NaD1/kg body weight,possible slight irritation to the stomach epithelium
same,body weight,[6]; [8],no treatment related effects on body weight
same,clinical signs,[6]; [8],"no signs of gross toxicity, adverse pharmacologic effects or behavioural changes"
same,survival,[6]; [8],survived to termination of the study
same,histopathology of organs,"[6]; oral gavage, doses below 300 mg NaD1/kg body weight","No pathologies, attributable to protein administration"
"Rs-AFP2: antifungal plant defensin from radish seeds (QKLCQRPSGTWSGVCGNNNACKNQCIRLEKARHGSCNYVFPAHKCICYFPC; UniProt P30230 30-80, looked up)",growth of Phoma betae,Phoma betae,inhibits the growth
same,activity against Sclerotinia sclerotiorum,Sclerotinia sclerotiorum,ineffective
"ARECKTESNTFPGICITKPPCRKACISEKFTDGHCSKILRRCLCTKPC (disulfide 4-48, 15-35, 21-42, 25-44) [rNaD1]",IC50,[4],~1.6 µM
same,haemolytic activity,human red blood cells,no ability to lyse RBCs
same,haemolytic activity,human red blood cells; listed as recombinant NaD1,no haemolytic activity
same,IC50,[5],7.5 to 12 µM
PhD1A: Petunia hybrida Class II defensin; mature domain SEQ ID NO: 18 (ATCKAECPTWDGICINKGPCVKCCKAQPEKFTDGHCSKVLRRCLCTKPC; listed as Petunia hybrida),PI+ U937 cells,U937 cells; 0% FCS,90%
same,PI+ U937 cells,U937 cells; 40% FCS,40%
same,activity on tumour cells in the presence of serum,U937 cells,retained the ability to permeabilise U937 cells
same,release of ATP from U937 cells,[1],release of ATP in a time-dependent and concentration-dependent manner
same,PI+ U937 cells,"[2]; 6.25 μM, 30 min, 37° C.",~35%
same,PI+ U937 cells (mean ± SEM),[2],57.07±2.76%
same,PI+ U937 cells,"[2]; 50 μM, 30 min, 37° C.",~90%
same,binding to phosphatidic acid (PA),[3],bound strongly
same,phospholipid binding preference (PIP strips),[3],general preference of binding to phosphoinositides
"rTPP3: Solanum lycopersicum (tomato) Class II defensin TPP3, recombinant (SEQ ID NO: 12) (AQQICKAPSQTFPGLCFMDSSCRKYCIKEKFTGGHCSKLQRKCLCTKPC; listed as Solanum lycopersicum)",retention of permeabilisation activity,U937 cells; 5-40% FCS,up to 70%
same,activity on tumour cells in the presence of serum,U937 cells,retained the ability to permeabilise U937 cells
same,release of ATP from U937 cells,[1],release of ATP in a time-dependent and concentration-dependent manner
same,PI+ U937 cells,"[2]; 5 μM, 30 min, 37° C.",~35%
same,PI+ U937 cells (mean ± SEM),[2],49.97±2.93%
same,PI+ U937 cells,"[2]; 40 μM, 30 min, 37° C.",~90%
same,phospholipid binding preference (PIP strips),[3],general preference of binding to phosphoinositides
NsD2: Nicotiana suaveolens class II defensin; mature domain SEQ ID NO: 26 (KDCKRESNTFPGICITKLPCRRACISEKFADGHCSKILRRCLCTKPC; listed as Nicotiana suaveolens),release of ATP from U937 cells,[1],release of ATP in a time-dependent and concentration-dependent manner
same,PI+ U937 cells,[2]; [7],~60%
same,phospholipid binding preference (PIP strips),[3],general preference of binding to phosphoinositides

# From patent US20120172313A1, “TREATMENT OF PROLIFERATIVE DISEASES” (priority 2010, published 2012)
